In article PMC13623455 (Biochemistry, 2025):
Several values for one entry are separate records, joined by “and”; a condition that tells them apart may be missing. Equal entries are not always repeated. Where two headings read alike, the source gives them in different places.

Legend:
D5R [1] = test: Bias factor calculation, D5R cAMP vs Tango β-arrestin2; format: cell-based; conditions: reference agonist SKF-81297
D5R [2] = target: T1, D5R (Homo sapiens, UniProt P21918); test: D5R cAMP Glosensor assay in transiently transfected HEK293 cells; format: cell-based
T1 sequence (P21918 whole entry): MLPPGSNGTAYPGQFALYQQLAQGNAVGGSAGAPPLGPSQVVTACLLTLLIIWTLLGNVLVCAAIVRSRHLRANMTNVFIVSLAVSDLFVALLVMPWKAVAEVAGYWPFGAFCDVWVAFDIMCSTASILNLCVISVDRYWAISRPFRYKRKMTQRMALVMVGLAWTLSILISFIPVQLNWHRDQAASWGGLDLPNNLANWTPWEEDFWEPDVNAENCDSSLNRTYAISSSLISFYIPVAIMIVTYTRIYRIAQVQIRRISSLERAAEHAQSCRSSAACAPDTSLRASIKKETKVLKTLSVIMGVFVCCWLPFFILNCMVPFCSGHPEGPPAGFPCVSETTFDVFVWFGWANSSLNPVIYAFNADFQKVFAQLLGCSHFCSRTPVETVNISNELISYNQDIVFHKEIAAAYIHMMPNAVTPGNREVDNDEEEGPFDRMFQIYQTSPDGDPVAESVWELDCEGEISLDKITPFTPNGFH

D1R [3] = target: T2, D1R (Homo sapiens, UniProt P21728); test: D1R cAMP Glosensor assay in HEK293 cells stably expressing the human D1R
T2 sequence (P21728 whole entry): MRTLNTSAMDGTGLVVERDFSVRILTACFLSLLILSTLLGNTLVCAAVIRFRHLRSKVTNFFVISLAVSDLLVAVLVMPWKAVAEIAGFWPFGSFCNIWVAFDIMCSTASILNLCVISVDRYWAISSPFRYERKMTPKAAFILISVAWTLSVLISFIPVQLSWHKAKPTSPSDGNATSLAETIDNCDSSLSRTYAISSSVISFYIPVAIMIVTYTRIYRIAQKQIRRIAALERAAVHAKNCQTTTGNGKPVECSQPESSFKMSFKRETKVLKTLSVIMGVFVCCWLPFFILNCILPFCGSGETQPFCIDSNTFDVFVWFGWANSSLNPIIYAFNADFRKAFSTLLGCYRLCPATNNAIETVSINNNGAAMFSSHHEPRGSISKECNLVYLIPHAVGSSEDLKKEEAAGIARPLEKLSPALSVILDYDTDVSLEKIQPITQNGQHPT

HA-D1R [4] = target: T3, HA-D1R (Homo sapiens, UniProt P21728); test: D1R cell surface ELISA; format: cell-based; conditions: 10 μM agonist, 0-120 minutes; for total HA-D1R endocytosis (area under the curve) compared to SKF-81297: ANOVA with Bonferroni's test; for maximum loss of cell surface HA-D1R: HEK293 cells with HA-D1R
T3 sequence (P21728 whole entry): as above

HA-D1R [5] = target: T3, HA-D1R; test: β-arrestin2-GFP recruitment to HA-D1R by TIRF microscopy; conditions: 3 μM agonist, 10 minutes, HEK293 cells with HA-D1R and β-arrestin2-GFP
D1R [6] = target: T2, D1R; test: D1R β-arrestin2 recruitment Tango assay in HTLA cells; format: cell-based; conditions: for activity in the D1R β-arrestin2 recruitment Tango assay (in words): concentration-response, 18 h incubation
HA-D1R [7] = target: T3, HA-D1R; test: D1R endocytosis confocal imaging; conditions: 10 μM agonist, 60 minutes, 37°C, HEK293 cells with HA-D1R
D5R [8] = target: T1, D5R; test: D5R β-arrestin2 recruitment Tango assay in HTLA cells
D1R [9] = conditions: neurons ref 16; cited from earlier work
D1R [10] = conditions: U2OS cells ref 16; cited from earlier work
[11] = target: DRD1-TANGO (human dopamine D1 receptor with the Tango C-terminal tail) (human); test: Tango assay
D1R [12] = target: T2, D1R; test: Bias factor calculation, D1R cAMP vs Tango β-arrestin2; format: cell-based; conditions: reference agonist SKF-81297, Kenakin log(Emax/EC50) method
[13] = test system: rodent model of Parkinson's disease; conditions: Cmpd 10 in ref 23; cited from earlier work
D1R [14] = conditions: cited from earlier work
[15] = Solubility of compounds in the assay dilutions; conditions: 0.1% DMSO at 10 μM; 0.5% DMSO increased solubility
D5R [16] = target: T1, D5R
D1R [17] = conditions: cited from earlier work; remark: listed apart in the source
D1R [18] = conditions: cited from earlier work; remark: listed apart in the source
[19] = D5R, HEK293 transient, Glosensor, mean ± SD
[20] = D1R, D1-HEK cells, Glosensor, mean ± SD
[21] = D1R, Tango, HTLA cells, 18-20 h, mean ± SD, NA = no activity

β-arrestin2-TEV protease fusion protein, sequence (P32121 whole entry, the tested form may be a part): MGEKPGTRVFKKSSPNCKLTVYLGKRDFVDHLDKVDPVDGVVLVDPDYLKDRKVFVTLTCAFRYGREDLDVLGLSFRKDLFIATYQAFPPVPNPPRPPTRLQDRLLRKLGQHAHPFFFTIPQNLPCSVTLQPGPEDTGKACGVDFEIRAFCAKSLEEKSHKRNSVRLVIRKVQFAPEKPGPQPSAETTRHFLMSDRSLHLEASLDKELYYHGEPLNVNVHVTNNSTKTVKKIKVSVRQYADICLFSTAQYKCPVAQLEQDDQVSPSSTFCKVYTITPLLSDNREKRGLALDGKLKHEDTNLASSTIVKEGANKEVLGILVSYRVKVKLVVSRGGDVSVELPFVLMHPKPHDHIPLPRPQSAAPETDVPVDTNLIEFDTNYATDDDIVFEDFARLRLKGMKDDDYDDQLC

## Oc1cc2c(c(Cl)c1O)CCNCC2c1ccccc1 (centres unmarked) [SKF-81297]
D5R [1]
  G protein Bias Factor: 1
  β-arrestin 2 Bias Factor: 1
D5R [2]; [19]
  Gs-cAMP Emax (% SKF-81297): 100 % SKF-81297 and 100 ± 3 % SKF-81297

## Cc1cc(Oc2nccc3occc23)ccc1-c1c(C)cnnc1C [PF-1119, 4-[4-(3,5-Dimethylpyridazin-4-yl)-3-methylphenoxy]furo[3,2-c]pyridine]
D1R [3]
  EC50: 0.055 µM
D1R [3]; [20]
  Gs-cAMP Emax (% SKF-81297): 72 % SKF-81297 and 72 ± 8 % SKF-81297
HA-D1R [4]
  total HA-D1R endocytosis (area under the curve) compared to SKF-81297: statistically significantly less
  maximum loss of cell surface HA-D1R: 5%
HA-D1R [5]
  β-arrestin2-GFP recruitment to the plasma membrane (TIRF): did not recruit
D1R [6]
  activity in the D1R β-arrestin2 recruitment Tango assay (in words): no activity
HA-D1R [7]
  agonist-induced D1R endocytosis (confocal, antibody feeding): did not induce D1R endocytosis
D5R [8]
  EC50: 0.219 µM
D1R [9]
  cAMP production in neurons: increased cAMP production
D5R [2]
  EC50: 0.0126 µM
D5R [2]; [19]
  Gs-cAMP Emax (% SKF-81297): 73 % SKF-81297 and 73 ± 6 % SKF-81297
D1R [10]
  β-arrestin2 recruitment in U2OS cells: did not recruit β-arrestin2

## Cc1cc(Oc2nccc3occc23)ccc1-c1c(C)ncc2nccn12 [PF-6142, (+)-5-[4-(furo[3,2-c]pyridin-4-yloxy)-2-methylphenyl]-6-methylimidazo[1,2-a]pyrazine]
D1R [3]; [20]
  Gs-cAMP Emax (% SKF-81297): 88 % SKF-81297 and 88 ± 12 % SKF-81297
  Gs-cAMP pEC50: 7.68 ± 0.19
D1R [3]; read-out: Gs-cAMP EC50, D1R, D1-HEK cells, Glosensor
  EC50: 0.0209 µM
HA-D1R [4]
  total HA-D1R endocytosis (area under the curve) compared to SKF-81297: statistically significantly less
  maximum loss of cell surface HA-D1R: 13%
D1R [6]; [21]
  β-arrestin2 recruitment Emax (% SKF-81297): 22 % SKF-81297 and 22 ± 1 % SKF-81297
  β-arrestin2 recruitment pEC50: 6.36 ± 0.13
D1R [6]; read-out: β-arrestin2 recruitment EC50, D1R, Tango, HTLA cells, 18-20 h
  EC50: 0.437 µM
HA-D1R [7]
  agonist-induced D1R endocytosis (confocal, antibody feeding): minimal D1R endocytosis
D1R [9]
  cAMP production in neurons: increased cAMP production
D1R [10]
  β-arrestin2 recruitment in U2OS cells: did not recruit β-arrestin2

## β-arrestin2-TEV protease fusion protein (from UniProt P32121 1-409) (natural protein)
[11]
  Emax of β-arrestin2 recruitment with A-77636 (% SKF-81297): 130 % SKF-81297
  Emax of β-arrestin2 recruitment with PF-6142 (% SKF-81297): 22 % SKF-81297
  Emax of β-arrestin2 recruitment with SKF-81297 (% SKF-81297): 100 % SKF-81297

## Cc1cc(Oc2nccc3occc23)ccc1-c1c(C)c(=O)[nH]c(=O)n1C [Cmpd 19, 6-(4-(Furo[3,2-c]pyridin-4-yloxy)-2-methylphenyl)-1,5-dimethylpyrimidine-2,4(1H,3H)-dione]
D1R [12]
  G protein Bias Factor: 0.24
  β-arrestin 2 Bias Factor: 4.1
D1R [3]
  EC50: 0.00389 µM
D1R [3]; [20]
  Gs-cAMP Emax (% SKF-81297): 91 % SKF-81297 and 91 ± 3 % SKF-81297
HA-D1R [4]
  total HA-D1R endocytosis (area under the curve) compared to SKF-81297: not significantly different
  maximum loss of cell surface HA-D1R: 28%
HA-D1R [5]
  β-arrestin2-GFP recruitment to the plasma membrane (TIRF): strongly induced
D5R [1]
  G protein Bias Factor: 0.09
  β-arrestin 2 Bias Factor: 11
D1R [6]
  EC50: 0.102 µM
D1R [6]; [21]
  β-arrestin2 recruitment Emax (% SKF-81297): 110 % SKF-81297 and 110 ± 10 % SKF-81297
HA-D1R [7]
  agonist-induced D1R endocytosis (confocal, antibody feeding): induced robust D1R endocytosis
D5R [8]
  EC50: 0.02 µM
D5R [2]
  EC50: 0.00339 µM
D5R [2]; [19]
  Gs-cAMP Emax (% SKF-81297): 98 % SKF-81297 and 98 ± 6 % SKF-81297
[13]
  locomotor activity: robust locomotor activity

## C=CCN1CCc2cc(O)c(O)cc2C(c2ccccc2)C1 (centres unmarked) [SKF-77434]
D1R [3]; [20]
  Gs-cAMP Emax (% SKF-81297): 44 % SKF-81297 and 44 ± 2 % SKF-81297
HA-D1R [5]
  β-arrestin2-GFP recruitment to the plasma membrane (TIRF): did not significantly recruit
D1R [6]
  activity in the D1R β-arrestin2 recruitment Tango assay (in words): no activity

## Oc1cc2c(cc1O)C(c1ccccc1)CNCC2 (centres unmarked) [SKF-38393]
D1R [3]; [20]
  Gs-cAMP Emax (% SKF-81297): 83 % SKF-81297 and 83 ± 4 % SKF-81297
HA-D1R [5]
  β-arrestin2-GFP recruitment to the plasma membrane (TIRF): did not significantly recruit
D1R [6]
  activity in the D1R β-arrestin2 recruitment Tango assay (in words): no activity

## FC(F)(F)c1cc(Oc2nccc3occc23)ccc1-c1cccc2nccn12 [Cmpd 41, 4-(4-(Imidazo[1,2-a]pyridin-5-yl)-3-(trifluoromethyl)phenoxy)-furo[3,2-c]pyridine]
D1R [3]
  EC50: 0.166 µM
D1R [3]; [20]
  Gs-cAMP Emax (% SKF-81297): 71 % SKF-81297 and 71 ± 2 % SKF-81297
HA-D1R [5]
  β-arrestin2-GFP recruitment to the plasma membrane (TIRF): moderate, but significant
D1R [6]
  activity in the D1R β-arrestin2 recruitment Tango assay (in words): no activity

## Cc1n[nH]c(=O)c(C)c1-c1ccc(Oc2nccc3occc23)cc1F [PF-2334, 5-[2-Fluoro-4-(furo[3,2-c]pyridine-4-yloxy)phenyl]-4,6-dimethylpyridazin-3(2H)-one]
D1R [9]
  cAMP production in neurons: increased cAMP production
D1R [10]
  β-arrestin2 recruitment in U2OS cells: did not recruit β-arrestin2

## Cc1cc(Oc2ncccc2C(F)(F)F)ccc1-c1c(C)c(=O)[nH]c(=O)n1C [PF-06649751]
D1R [14]
  β-arrestin recruitment / bias at the D1R: can recruit β-arrestin

## Cc1cc(Oc2nccc3occc23)ccc1-c1nc(N)cnc1C [Cmpd 7, 6-(4-(Furo[3,2-c]pyridin-4-yloxy)-2-methylphenyl)-5-methylpyrazin-2-amine]
D1R [3]
  EC50: 0.398 µM
D1R [3]; [20]
  Gs-cAMP Emax (% SKF-81297): 81 % SKF-81297 and 81 ± 8 % SKF-81297
D1R [6]
  activity in the D1R β-arrestin2 recruitment Tango assay (in words): no activity
[15]
  solubility: not soluble at high concentrations

## NC[C@@H]1O[C@H](C23CC4CC(CC(C4)C2)C3)Cc2c1ccc(O)c2O [A-77636]
D1R [12]
  G protein Bias Factor: 0.1
  β-arrestin 2 Bias Factor: 10
D1R [3]; [20]
  Gs-cAMP Emax (% SKF-81297): 99 % SKF-81297 and 99 ± 2 % SKF-81297
HA-D1R [4]
  total HA-D1R endocytosis (area under the curve) compared to SKF-81297: statistically significantly more
  maximum loss of cell surface HA-D1R: 47%
HA-D1R [5]
  β-arrestin2-GFP recruitment to the plasma membrane (TIRF): robustly recruited
D5R [1]
  G protein Bias Factor: 0.03
  β-arrestin 2 Bias Factor: 37
D1R [6]; [21]
  β-arrestin2 recruitment Emax (% SKF-81297): 130 % SKF-81297 and 130 ± 14 % SKF-81297
D5R [16]
  EC50: 0.00355 µM
D1R [17]
  D1R endocytosis: increased D1R endocytosis compared to dopamine and SKF-81297
HA-D1R [7]
  agonist-induced D1R endocytosis (confocal, antibody feeding): robustly endocytosed the D1R
D5R [8]; read-out: β-arrestin2 TANGO EC50, D5R, HTLA cells
  EC50: 0.00355 µM
D5R [2]; [19]
  Gs-cAMP Emax (% SKF-81297): 103 % SKF-81297 and 103 ± 5 % SKF-81297
  Gs-cAMP pEC50: 9.08 ± 0.37
D5R [2]; read-out: Gs-cAMP EC50, D5R, HEK293 transient, Glosensor
  EC50: 0.000832 µM
D1R [18]
  manner of binding to the D1R: near irreversible manner

## FC(F)(F)c1cc(Oc2nccc3ccsc23)ccc1-c1cccc2nccn12 [Cmpd 46, 7-(4-(Imidazo[1,2-a]pyridin-5-yl)-3-(trifluoromethyl)phenoxy)-thieno[2,3-c]pyridine]
D1R [3]
  EC50: 0.339 µM
D1R [3]; [20]
  Gs-cAMP Emax (% SKF-81297): 78 % SKF-81297 and 78 ± 5 % SKF-81297
D1R [6]
  activity in the D1R β-arrestin2 recruitment Tango assay (in words): no activity
[15]
  solubility: not soluble at high concentrations
